Results reported in patent US9260485B2 (priority 2009, dated 2016).
Where two headings read alike, the source gives them in different places. Square brackets hold non-standard residues; d marks the D form. Peptide text beside a SMILES is read from it. ξ: configuration not given here. Hica(2S) = CC(C)C[C@H](O)C(=O)O; ξLac(3-iPr) = CC(C)CC(O)C(=O)O; NMeL = CN[C@@H](CC(C)C)C(=O)O

Experiments:
[1] = tested on: HCT15/CL02 cell line (doxorubicin-selected from HCT15); assay: In vitro cytotoxicity, SRB method; assay type: cell-based, Human
Protocol: (§1) Known cyclic hexadepsipeptides (beauvericin, enniatin H, I, and MK1688) and the compounds of Chemical Formulas 1 and 2 were evaluated for in vitro cytotoxicity against various non-multidrug-resistant human cancer cell lines and multidrug-resistant cancer cell lines using the SRB method.
(§2) Human non-small-cell lung cancer cell line (A549) ovarian cancer cell line (SK-OV-3), skin cancer cell line (SK-MEL-2), and uterine sarcoma cell line MES-SA and its multi-drug resistant subline (MES-SA/DX5) were purchased from the American Type Culture Collection (USA). Colorectal carcinoma cancer cell line (HCT-15) was provided by the National Cancer Institute (NCI). HCT15/CL02 cell lines were established from HCT15 cells by continuous and stepwise exposure of the cells to doxorubicin in the Korea Research Institute of Chemical Technology (Korea).

[2] = tested on: SK-MEL-2 skin cancer cell line; assay: In vitro cytotoxicity, SRB method; assay type: cell-based, Human
Protocol: as §1, §2

[3] = tested on: MES-SA/DX5 multi-drug resistant subline; assay: In vitro cytotoxicity, SRB method; assay type: cell-based, Human
Protocol: as §1, §2

[4] = tested on: A549 non-small-cell lung cancer cell line; assay: In vitro cytotoxicity, SRB method; assay type: cell-based, Human
Protocol: as §1, §2

[5] = tested on: SK-OV-3 ovarian cancer cell line; assay: In vitro cytotoxicity, SRB method; assay type: cell-based, Human
Protocol: as §1, §2

[6] = tested on: HCT15 colorectal carcinoma cancer cell line; assay: In vitro cytotoxicity, SRB method; assay type: cell-based, Human
Protocol: as §1, §2

[7] = tested on: MES-SA uterine sarcoma cell line; assay: In vitro cytotoxicity, SRB method; assay type: cell-based, Human; details: read-out: EC50 (concentration inhibiting cell growth in vitro by 50%)
Protocol: as §1, §2

Mucor rouxii = assay: Anti-fungal activity, paper disc on mycelia on PDA; assay type: cell-based
Protocol: (§3) Inhibitory activity was performed against four fungus strains (Mucor rouxii, Penicillium citrinum, Fusarium oxysporum, and Aspergillus oryzae).
(§4) Drops of 1 and 10 mM solutions of compounds of Chemical Formulas 1 and 2 in methanol were loaded onto sterile paper discs (8 mm diameter) and the methanol solvent was evaporated under a hood. The paper discs were placed on fungus mycelia grown on potato dextrose agar. After incubation at 25° C. for 48 hr, clear zones around the discs were observed and their diameters were measured. A filter treated with pure methanol was used as a negative control.

Penicillium citrinum = assay: Anti-fungal activity, paper disc on mycelia on PDA; assay type: cell-based; details: 1 mM; 25° C., 48 hr
Protocol: as §3, §4

Aspergillus oryzae = assay: Anti-fungal activity, paper disc on mycelia on PDA; assay type: cell-based; details: 1 mM; 25° C., 48 hr
Protocol: as §3, §4

Fusarium oxysporum = assay: Anti-fungal activity, paper disc on mycelia on PDA; assay type: cell-based
Protocol: as §3, §4

[8] = tested on: Escherichia coli ATCC 8739; assay: Anti-bacterial activity, paper disc clear zone; assay type: cell-based; details: 0.1, 0.5, 1 and 2 mM on paper disc; 37° C., 24 hr
Protocol: (§5) Assays for antibacterial activity were performed with 3 Gram-positive (Listeria monocytogenes ATCC 14028, Staphylococcus aureus ATCC 35556 and Bacillus cereus ATCC 13061) and 3 Gram-negative bacteria (Escherichia coli ATCC 8739, Pseudomonas aeruginosa ATCC 9026 and Salmonella typhimurium ATCC 14028). Each of the compounds of Chemical Formulas 1 and 2 was dissolved in different concentrations (0.1, 0.5, 1, and 2 mM) in dimethyl sulfoxide (DMSO). The solutions were applied to a sterile paper disc (5 mm diameter), followed by evaporating the DMSO solvent. Bacteria was inoculated at a density of 1×10^7 CFU/ml on Tryptic soy agar (TSA) and then, the paper disc was placed on the bacteria-inoculated agars. After incubation at 37° C. for 24 hr, the clear zone around each disc was observed and its diameter was measured.

[9] = tested on: Salmonella typhimurium ATCC 14028; assay: Anti-bacterial activity, paper disc clear zone; assay type: cell-based; details: 0.1, 0.5, 1 and 2 mM on paper disc; 37° C., 24 hr
Protocol: as §5

[10] = tested on: Bacillus cereus ATCC 13061; assay: Anti-bacterial activity, paper disc clear zone; assay type: cell-based; details: 0.1, 0.5, 1 and 2 mM on paper disc; 37° C., 24 hr
Protocol: as §5

[11] = tested on: Pseudomonas aeruginosa ATCC 9026; assay: Anti-bacterial activity, paper disc clear zone; assay type: cell-based; details: 0.1, 0.5, 1 and 2 mM on paper disc; 37° C., 24 hr
Protocol: as §5

[12] = tested on: Listeria monocytogenes ATCC 14028; assay: Anti-bacterial activity, paper disc clear zone; assay type: cell-based; details: 0.1, 0.5, 1 and 2 mM on paper disc; 37° C., 24 hr
Protocol: as §5

[13] = tested on: Staphylococcus aureus ATCC 35556; assay: Anti-bacterial activity, paper disc clear zone; assay type: cell-based; details: 0.1, 0.5, 1 and 2 mM on paper disc; 37° C., 24 hr
Protocol: as §5

[14] = tested on: MDR cell lines (MES-SA/DX5 and HCT15/CL02); assay: Multidrug resistance-reversing activity, summary in words; assay type: cell-based, Human
Protocol: The cyclic pentadepsipeptides of Chemical Formulas 1 and 2 were analyzed for MDR-reversing activity by comparing inhibitory activities against multidrug-resistant cancer cell lines (MES-SA/DX5 and HCT15/CL02) with those against non-multidrug-resistant cancer cell lines (MES-SA and HCT15). In this regard, the effects of the cyclic pentadepsipeptides of Chemical Formulas 1 and 2 on paclitaxel's cytotoxicity against MDR tumor cells were measured (Table 6). […].
Therefore, the N-methyl group in the cyclic pentadepsipeptide may be a factor crucial for the expression of the MDR reversal activity. […]

[15] = tested on: NCI human tumor cell line screen; details: cited from earlier work
[16] = read-out: EC50 (concentration inhibiting cell growth in vitro by 50%), HCT15/CL02
[17] = read-out: EC50 (concentration inhibiting cell growth in vitro by 50%), SK-MEL-2
[18] = read-out: EC50 (concentration inhibiting cell growth in vitro by 50%), MES-SA/DX5
[19] = read-out: EC50 (concentration inhibiting cell growth in vitro by 50%), A549
[20] = read-out: EC50 (concentration inhibiting cell growth in vitro by 50%), SK-OV-3
[21] = read-out: EC50 (concentration inhibiting cell growth in vitro by 50%), HCT15
[22] = Homo sapiens, HCT-15, read-out: EC50 (concentration inhibiting cell growth in vitro by 50%)

Molecule `CC[C@H](C)[C@H]1OC(=O)[C@H](C(C)C)N(C)C(=O)[C@@H](C(C)C)OC(=O)[C@H](C(C)C)N(C)C(=O)[C@@H](C(C)C)OC(=O)[C@H](C(C)C)N(C)C1=O` [EN H, enniatin H] has an EC50 [1, 16] of 17.7 ± 0.49 µM, an EC50 [2, 17] of 1.77 ± 0.03 µM and an EC50 [3, 18] of 14.9 ± 0.59 µM. The EC50 [4, 19] was 1.84 ± 0.11 µM, the EC50 [5, 20] was 1.71 ± 0.03 µM and the EC50 [6, 21] was 16.7 ± 0.96 µM. It also gave an EC50 [7] of 12.9 ± 0.23 µM.
In the case of `CC(C)CC1OC(=O)[C@H](CC(C)C)NC(=O)[C@H](Cc2ccccc2)NC(=O)[C@H](C(C)C)NC(=O)[C@H](CC(C)C)NC1=O` (some centres unmarked) [Com. 1, neo-sansalvamide] (cyclo(FL[ξLac(3-iPr)]LV)), the “Antifungal test, overall result” value (Mucor rouxii) is reported as “inhibitory against Mucor rouxii, and Fusarium oxysporum, weakly”, the “Inhibitory activity on mycelial growth” value (Mucor rouxii; 1 mM, 25° C., 48 hr) is reported as “No inhibitory activities were detected” and the Clear zone (Mucor rouxii; 10 mM, 25° C., 48 hr) is reported as “no clear zones were observed”. The “Hyphal growth near the paper disc” value (Mucor rouxii; 10 mM, 25° C., 48 hr) was “hyphal growth of Mucor rouxii was reduced”, the “Inhibitory activity on mycelial growth” value (Penicillium citrinum) was “No inhibitory activities were detected” and the “Inhibitory activity on mycelial growth” value (Aspergillus oryzae) was “No inhibitory activities were detected”. The “Antifungal test, overall result” value (Fusarium oxysporum) was “inhibitory against Mucor rouxii, and Fusarium oxysporum, weakly”, the “Inhibitory activity on mycelial growth” value (Fusarium oxysporum; 1 mM, 25° C., 48 hr) was “No inhibitory activities were detected” and the “Clear zone / inhibitory effect on mycelium” value (Fusarium oxysporum; 10 mM, 25° C., 48 hr) was “did not produce a clear zone”. For the same molecule, the “Inhibitory activity (clear zone around disc)” value [8] was “Neither the compound of Chemical Formula 1 nor Chemical Formula 2 showed inhibitory activity”, the “Inhibitory activity (clear zone around disc)” value [9] was “Neither the compound of Chemical Formula 1 nor Chemical Formula 2 showed inhibitory activity” and the “Inhibitory activity (clear zone around disc)” value [10] was “Neither the compound of Chemical Formula 1 nor Chemical Formula 2 showed inhibitory activity”. The “Inhibitory activity (clear zone around disc)” value [11] was “Neither the compound of Chemical Formula 1 nor Chemical Formula 2 showed inhibitory activity”, the “Inhibitory activity (clear zone around disc)” value [12] was “Neither the compound of Chemical Formula 1 nor Chemical Formula 2 showed inhibitory activity” and the “Inhibitory activity (clear zone around disc)” value [13] was “Neither the compound of Chemical Formula 1 nor Chemical Formula 2 showed inhibitory activity”. The EC50 [1, 22] was 22.1 ± 2.45 µM, the EC50 ([2]; Homo sapiens, SK-MEL-2, read-out: EC50 (concentration inhibiting cell growth in vitro by 50%)) was 14 ± 1.32 µM and the EC50 ([3]; Homo sapiens, MES-SA/Dx5, read-out: EC50 (concentration inhibiting cell growth in vitro by 50%)) was 19.4 ± 1.1 µM. It also gave an EC50 ([4]; Homo sapiens, A549, read-out: EC50 (concentration inhibiting cell growth in vitro by 50%)) of 11.7 ± 0.55 µM, an EC50 ([5]; Homo sapiens, SK-OV-3, read-out: EC50 (concentration inhibiting cell growth in vitro by 50%)) of 10.4 ± 0.64 µM and an EC50 [6, 22] of 9.95 ± 1 µM. The EC50 ([7]; Homo sapiens) was 11.8 ± 0.13 µM and the “Effect on the cytotoxicity of paclitaxel against MDR cell lines” value [14] was “increased the cytotoxicity of paclitaxel against MDR cell lines, but only slightly”.
For `CC(C)C[C@@H]1NC(=O)[C@H](Cc2ccccc2)NC(=O)[C@H](CC(C)C)N(C)C(=O)[C@H](C(C)C)NC(=O)[C@H](CC(C)C)OC1=O` [N-Methylsansalvamide] (cyclo(FL[Hica(2S)]V[NMeL])), the GI50 [15] is listed as 8.3 µM.
Work on beauvericin yielded an EC50 [1, 16] of 1.66 ± 0.08 µM, an EC50 [2, 17] of 1.47 ± 0.09 µM and an EC50 [3, 18] of 1.34 ± 0.03 µM. For the same molecule, the EC50 [4, 19] was 1.43 ± 0.16 µM, the EC50 [5, 20] was 1.39 ± 0.09 µM and the EC50 [6, 21] was 1.53 ± 0.09 µM. For the same molecule, the EC50 [7] was 1.29 ± 0.02 µM.
